The source made the active and inactive calls. No cut-off for these calls is given here.
Experiments:
[1] = target: T1, Diacylglycerol O-acyltransferase 1 (Homo sapiens, UniProt O75907); assay: Inhibition of recombinant human DGAT1 expressed in Sf9 cell membrane assessed as inhibition of triglyceride synthesis incubated for 1 hrs by LC-MS-based mass spectrophotometric analysis; assay type: cell membranes
T1 sequence (O75907 whole entry): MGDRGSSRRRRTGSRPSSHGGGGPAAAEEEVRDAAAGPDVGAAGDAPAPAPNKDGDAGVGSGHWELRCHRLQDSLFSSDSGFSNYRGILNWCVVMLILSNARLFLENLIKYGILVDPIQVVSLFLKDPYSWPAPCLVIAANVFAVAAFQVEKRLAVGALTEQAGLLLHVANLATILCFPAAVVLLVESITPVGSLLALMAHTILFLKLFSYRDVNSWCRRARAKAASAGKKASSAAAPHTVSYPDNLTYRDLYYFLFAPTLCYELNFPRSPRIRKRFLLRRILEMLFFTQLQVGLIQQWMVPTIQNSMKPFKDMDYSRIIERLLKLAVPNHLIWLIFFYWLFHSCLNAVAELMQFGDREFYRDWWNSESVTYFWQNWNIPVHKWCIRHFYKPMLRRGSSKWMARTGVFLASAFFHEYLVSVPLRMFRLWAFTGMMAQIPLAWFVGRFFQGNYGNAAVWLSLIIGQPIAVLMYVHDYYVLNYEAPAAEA

[2] = target: T1, Diacylglycerol O-acyltransferase 1; assay: Inhibition of human DGAT1 in serum starved HEK293 cells assessed as inhibition of triglyceride synthesis incubated for 20 mins followed by 13C-addition of 13C-oleic acid pre-complexed with BSA for 120 mins by LC-MS-based mass spectrophotometric analysis; assay type: cell-based
Mus musculus [3] = assay: In vivo inhibition of DGAT1 in C57BL/6 mouse model of acute lipid challenge assessed as reduction in chylomicron derived plasma triglyceride excursion at 3 to 10 mg/kg, po as corn oil bolus by Oral lipid tolerance test relative to control; assay type: functional, organism-based; settings: dose 3-10 mg/kg
Mus musculus [4] = assay: In vivo inhibition of DGAT1 in C57BL/6 mouse model of acute lipid challenge assessed as reduction in AUC plasma triglyceride level at 3 to 10 mg/kg, po as corn oil bolus by Oral lipid tolerance test relative to control; assay type: functional, organism-based; settings: dose 3-10 mg/kg

| IC50 [1] [nM] | IC50 [2] [nM] | SMILES | inhibition (Mus musculus [3]) | inhibition (Mus musculus [4]) |
| --- | --- | --- | --- | --- |
| 75 | 23 | O=C(O)CC1CCC2(CC1)CCC(c1ccc(NC(=O)c3nnc(Nc4ccc(F)c(F)c4)o3)cc1)CC2 (stereo in doubt; 8b) |  |  |
| 64 | 24 | O=C(O)CC1CCC2(CC1)CCC(c1ccc(NC(=O)c3nnc(Nc4ccc(F)c(F)c4)o3)cc1)CC2 (stereo in doubt; 8a) |  |  |
|  |  | O=C(O)CC1CCC2(CC1)CCN(c1ccc(NC(=O)c3nnc(Nc4ccc(F)c(F)c4)o3)cn1)CC2 | Active | Active |
|  |  | O=C(Nc1ccc(N2CCC3(CC2)CC(C(=O)O)C3)nc1)c1nnc(Nc2ccc(F)c(F)c2)o1 | Active | Active |
